Tested on: keratinocyte transglutaminase (TGk)
Assay: Assaying of keratinocyte transglutaminase (TGk) activity in mitomycin-pretreated NHEKs in deficient medium (radiochemical assay)
Assay type: cell-based, human
Design: key to Significant variation relative to the control: NS = not significant
Conditions: for % Activity relative to the control / Significant variation relative to the control: TGk activity, medium with mitomycin, depleted medium, 96 hours
Excerpt: For this, normal human epidermal keratinocytes (NHEKs), pretreated with mitomycin so as to prevent proliferation thereof, in a deficient medium made up of 40% of depleted SFM medium and 60% of Earle's balanced salt solution (EBSS) buffer were placed in culture. The metabolism of these cells having been thus slowed down, their ability to differentiate is then quantified by assaying, using a standard radiochemical assay, the keratinocyte transglutaminase activity (TGk) of the NHEKs pretreated with the active agents. […] Normal human keratinocytes were cultured at 37° C. and 5% CO2 for 24 h in complete SFM medium. The cell divisions were then blocked by treatment with mitomycin C (10 μg/ml) for 2 hours at 37° C. and 5% CO2. The cells were then incubated for 96 hours in deficient or nondeficient (control) medium containing or not containing various concentrations of the test or reference products. […] The treatments were carried out in triplicate (n=3). At the end of the incubation, the TGk membrane enzyme was extracted in the presence of Triton X-100 and the TGk activity was determined by measuring the covalent addition of tritiated putrescine, at a final concentration of 2 μCi/ml, to caseine (acceptor protein, 2 mg/ml final concentration). The caseine was precipitated by addition of trichloroacetic acid (TCA) and the precipitates were recovered on filters and a collector and then the dry filters were counted by liquid scintillation.

## CC(O)CO (stereo not drawn) [1,2-propanediol]
0.16%
  % Activity relative to the control: 87%
  Significant variation relative to the control: NS
Tested at 0.8%
  effect on the TGk activity: did not modify the activity

## CC(O)C[C@@H]1OC[C@@H](O)[C@H](O)[C@H]1O (stereo partly drawn) [C-β-D-xylopyranoside-2-hydroxypropane]
0.06%
  % Activity relative to the control: 128%
  Significant variation relative to the control: NS
Tested at 0.06%
  effect on the TGk activity: no significant effect

## [Ca+2].[Cl-].[Cl-] [CaCl2, Calcium chloride, reference compound]
1.5 mM
  effect on the TGk activity of the keratinocytes: clearly increased the TGk activity
  % Activity relative to the control: 557%
  Significant variation relative to the control: +457%

## Hyaluronic acid
0.02%
  % Activity relative to the control: 88%
  Significant variation relative to the control: NS
Tested alone at 0.02%
  effect on the keratinocyte transglutaminase activity: no effect
